This is an account of results in patent US10493061B2, “Compositions and methods comprising 2-(acylamino)imidazoles” (priority 2014, dated 2019).

“Also recorded” adds a separate entry of the source.

The subject of series [1] is metal trafficking genes in MCF-7, T47D, MDA-MB-231 and MCF-10A cells. Put plainly: Real-time PCR of metal trafficking genes. The class given is cell-based, human. As to conditions: 30 μM ZNA, 3 or 24 hours, four cell lines. On the procedure: Real-Time PCR (RT-PCR): For experiments designed to measure gene expression, real-time PCR (RT-PCR) was conducted using a LightCycler 480 (Roche, Basel, Switzerland) and KAPA SYBR FAST qPCR Master Mix (Kapa Biosystems, Boston, Mass., USA). […] Genomic DNA was removed with a DNase digest and 1 μg of RNA was used to synthesize cDNA using a Superscript III Reverse Transcriptase kit from Invitrogen per the manufacturer's protocol; after an RNase H digestion, RT-PCR was performed in a 5 μL reaction using KAPA SYBR FAST qPCR Master Mix (Kapa Biosystems, Boston, Mass., USA). The following primer sets were used: MT1F 5′-[…] -3′ (SEQ ID NO:1) and 5′-[…] -3′ (SEQ ID NO:2); MT1X 5′-[…] -3′ (SEQ ID NO:3) and 5′-[…] -3′ (SEQ ID NO:4); MT2A 5′-[…] -3′ (SEQ ID NO:5) and 5′-[…] -3′ (SEQ ID NO:6); SLC30A2 5′-[…] -3′ (SEQ ID NO:7) and 5′-[…] -3′ (SEQ ID NO:8); SLC30A1 5′-[…] -3′ (SEQ ID NO:9) and 5′-[…] -3′ (SEQ ID NO:10). Data were normalized to an internal reference gene (GAPDH 5′-[…] -3′ (SEQ ID NO:11) and 5′-[…] -3′ (SEQ ID NO:12)) and relative gene expression was assessed using the comparative CT method set forth in Schmittgen T D, Livak K J. Analyzing real-time PCR data by the comparative CT method. Nat Protocols 2008; 3(6):1101-08. For tissue derived from mouse in vivo experiments, fresh tissue was homogenized using a TissueLyser II for 3 minutes at 30 Hz before isolating RNA. […]
In general terms: In qPCR the cycle at which signal appears reflects the starting amount.

Series [2] concerns transplanted PyMT mammary tumors. Put plainly: Mouse mammary tumor model (transplanted PyMT tumors), Kaplan-Meier survival. The class given is in vivo. On the procedure: In vivo ZNA studies: Mouse studies were conducted with the approval of an institutional animal care and use committee. FVB/NJ mice were obtained from The Jackson Laboratory (Bar Harbor, Me., USA). In preparation for the in vivo study, EF1α-PyMT mouse mammary tumors were generated in donor mice and the tumors resected and prepared as single cells as described previously by Smith et al. (6). These cells were suspended in Matrigel (BD Biosciences) and injected (50,000 cells per 10 μL injection) into the uncleared mammary fat pad of 3-week old female recipient FVB/NJ mice. Twenty-one days following the transplant, the mice were randomized, and drug treatment was initiated; the mice were treated once a day for 21 days, and a tumor diameter ≥2 cm was established as an endpoint. ZNA (100 mg/kg) or the matched vehicle control was administered to each mouse via a 200-μL intraperitoneal injection of ZNA diluted into DMSO, then diluted into phosphate buffered saline to a final DMSO concentration of 5%. ZnSO4 was administered continuously for the 21-day treatment period to the appropriate groups via drinking water (25 mM ZnSO4.7H2O).
Statistics: The student's t-test (unpaired) was used to assess statistical significance and a p≤0.05 was considered statistically significant. Statistical significance between Kaplan-Meier survival curves was measured by the Mantel-Cox test using Prism 6.0 (GraphPad Software). The following P-values were used to annotate statistical significance: p≤0.05=*; p≤0.01=**; p≤0.001=***.
Next, the efficacy of the compound was tested in an in vivo tumor model. […] Mice were treated once a day for 21 days, and four treatment conditions were assessed: ZNA (100 mg/kg administered via intraperitoneal), ZnSO4 (25 mM administered continuously for the duration of treatment via drinking water), a combination of ZNA and ZnSO4, and a control group (PBS administered via intraperitoneal injection); a tumor diameter greater than 2 cm was established as an endpoint.

Series [3] can be described thus: Zn^2+ binding, (ZNA)2Zn dimer formation (MeOH precipitation, X-ray, NMR). The source says:
The structure of the solid product was confirmed by X-ray crystallography (FIG. 14B). […] HCl in D2O protonates the ligand off the metal center, as evidenced by the disappearance of the diastereotopic benzyllic AB quartet in the dimer and its appearance as a singlet in the monomer. […] Of the analogues evaluated, those with more electron-donating groups at C5 or on the N^2-carbonyl seem to improve activity.

The subject of series [4] is MCF-10A cells. Put plainly: Cellular proliferation, EdU incorporation assay. The class given is cell-based, human. As to conditions: ZNA/ZnSO4, 6 hours.
For series [5], the system named is MCF-10A normal mammary epithelial cell line. In words: Cell viability (ATP quantification) with exogenously added transition metals.
Method: Three breast cancer cell lines (MCF-7, T47D, and MDA-MB-231) and a normal mammary epithelial cell line (MCF-10A) were treated with 30 μM ZNA in conjunction with 30 M CuSO4, ZnSO4, Fe(III)Cl3, Fe(II)SO4, NiSO4, MnCl2, or CoCl2 for 48 hours; following the completion of treatment, cell viability was measured using an ATP quantification assay (FIG. 2A).

Take `COc1ccc(-c2c(Cc3ccccc3)[nH]/c(=N\C(=O)c3ccccc3F)n2C)cc1` [ZNA, (E)-N-(4-benzyl-5-(4-methoxyphenyl)-1-methyl-1H-imidazol-2(3H)-ylidene)-2-fluorobenzamide]: the “transcription of metal trafficking genes” value in series [1] is given as “stimulated transcriptional increases”. For the same molecule, the survival result in series [2] (ZNA 100 mg/kg ip once a day for 21 days, vs control-treated group) is on record as “statistically significant survival advantage”; in series [2] (ZNA 100 mg/kg ip once a day with 25 mM ZnSO4 in drinking water, 21 days, vs ZnSO4-only group) it was “statistically significant survival advantage”. In addition, the “general toxicity, adverse reactions, body weight” value in series [2] (mice, ZNA 100 mg/kg alone or with ZnSO4) was “no general toxicity, adverse reactions, or decreases in body weight were observed; also recorded: without detrimental effects on mouse weight and health”. In addition, the “Zn^2+ binding” value in series [3] is given as “binds Zn^2+ in a pH dependent fashion”. Besides, in series [4], the “proliferation (EdU)” value is recorded as “somewhat affected”. The cell viability entry was “significant reduction in cell viability” in series [5] (30 μM ZNA with CuSO4, 48 hours) and “only a partial reduction in cell number” in series [5] (30 μM ZNA with ZnSO4, 48 hours).
